We go through 23 molecules from patent US12509444B2, “Compounds and methods for CD73 modulation and indications therefor” (Plexxikon Inc., priority 2019, dated 2025).

In assay [1] the target is T1, Human CD73 (amino acid residues 27-549) (Homo sapiens, UniProt P21589).
T1 construct: Human CD73 (amino acid residues 27-549); His tag (N); made in house; host or cells: E. coli
T1 sequence (P21589 27-549): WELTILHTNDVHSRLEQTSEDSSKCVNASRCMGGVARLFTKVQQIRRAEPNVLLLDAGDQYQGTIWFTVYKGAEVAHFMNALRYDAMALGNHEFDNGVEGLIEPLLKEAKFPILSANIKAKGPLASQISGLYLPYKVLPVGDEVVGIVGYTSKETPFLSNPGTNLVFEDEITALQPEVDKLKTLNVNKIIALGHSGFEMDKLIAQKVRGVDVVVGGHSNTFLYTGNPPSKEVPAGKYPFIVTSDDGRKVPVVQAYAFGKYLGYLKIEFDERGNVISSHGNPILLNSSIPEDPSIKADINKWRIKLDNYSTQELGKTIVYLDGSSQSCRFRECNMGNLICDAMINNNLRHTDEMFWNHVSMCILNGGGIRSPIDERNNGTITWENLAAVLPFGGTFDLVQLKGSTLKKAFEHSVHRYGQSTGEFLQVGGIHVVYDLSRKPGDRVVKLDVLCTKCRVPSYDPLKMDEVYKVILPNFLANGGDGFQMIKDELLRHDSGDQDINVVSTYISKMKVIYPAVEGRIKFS
Description: CD73 enzymatic assay (luciferase-based indirect assay, CellTiter-Glo). In kind it is biochemical. The conditions noted are these: 0.4 nM CD73, 150 μM AMP, 1 hour at room temperature. In a few lines:
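His-tagged human CD73 (27-549) from E. coli, 0.4 nM, with 150 μM AMP in 50 mM HEPES pH 7.4, 0.01% Tween 20; 1 h at room temperature. AMP remaining read by CellTiter-Glo 2.0 luminescence with 1 μM final ATP after 30 min. IC50 from nonlinear regression of % inhibition.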
In general terms: ATP-based viability assays read luminescence as a measure of living cells.

For the next assay, the target named is T2, human CD73 (Homo sapiens, UniProt P21589).
T2 construct: expressed in transfected cells
T2 sequence (P21589 27-549): T1 sequence (P21589 27-549)
Description: Inhibitor activity against CD73 in cell based assay (CD73 expressing CHO-K1 cells). The conditions noted are these: CHO-K1 cells expressing human CD73, 150 μM AMP, 4 hours of incubation; read-out: CHO-K1 CELL VARIANT: CD73 IC50. In a few lines: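 Stably transfected CHO-K1 cells expressing human CD73 (1×10^4/well) incubated 4 h with compound (8-point 1:3 titration, top 10 μM final, 0.2% DMSO) and 150 μM AMP. Residual AMP in supernatant measured by CellTiter-Glo luminescence with 1 μM ATP after 30 min at room temperature; IC50 by nonlinear regression of percent inhibition vs high/low controls.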

By IC50 is commonly meant the concentration that inhibits the measured activity by half. Take `CCOC(=O)NCC(=O)N1CCC(NC(=O)O[C@@H]2CCN(c3cn[nH]c(=O)c3Cl)C2)CC1` [P-0162, ethyl (R)-(2-(4-((((1-(5-chloro-6-oxo-1,6-dihydropyridazin-4-yl)pyrrolidin-3-yl)oxy)carbonyl)amino)piperidin-1-yl)-2-oxoethyl) carbamate]: the IC50 (in assay [1]; at human CD73) was 0.001 to 10 µM each time.
With `CS(=O)(=O)NCC(=O)N1CCC(NC(=O)O[C@@H]2CCN(c3cn[nH]c(=O)c3Cl)C2)CC1` [P-0163, (R)-1-(5-chloro-6-oxo-1,6-dihydropyridazin-4-yl)pyrrolidin-3-yl (1-((methylsulfonyl)glycyl)piperidin-4-yl)carbamate], the IC50 (in assay [1]; on human CD73) was 0.001 to 10 µM each time.
Regarding `O=C(CO)N[C@H]1CC[C@H](NC(=O)O[C@@H]2CCN(c3cn[nH]c(=O)c3Cl)C2)CC1` [P-0164, (R)-1-(5-chloro-6-oxo-1,6-dihydropyridazin-4-yl)pyrrolidin-3-yl ((1r,4R)-4-(2-hydroxyacetamido)cyclohexyl) carbamate], the IC50 (in assay [1]; at human CD73) was 0.001 to 10 µM each time.
In the case of `CC(=O)N[C@H]1CC[C@H](NC(=O)O[C@@H]2CCN(c3cn[nH]c(=O)c3Cl)C2)CC1` [P-0165, (R)-1-(5-chloro-6-oxo-1,6-dihydropyridazin-4-yl)pyrrolidin-3-yl ((1r,4R)-4-acetamidocyclohexyl)carbamate], the 50% inhibitory concentration (IC50) (in assay [1]; at human CD73) was 0.001 to 10 µM each time.
Regarding `N#Cc1c(N2CC[C@@H](OC(=O)NC3CCNCC3)C2)cn[nH]c1=O` [P-0166, (R)-1-(5-cyano-6-oxo-1,6-dihydropyridazin-4-yl)pyrrolidin-3-yl piperidin-4-ylcarbamate], the IC50 (in assay [1]; at human CD73) was 0.001 to 10 µM each time.
As to `N[C@H]1C[C@H](NC(=O)O[C@@H]2CCN(c3cn[nH]c(=O)c3Cl)C2)C1` [P-0167, (R)-1-(5-chloro-6-oxo-1,6-dihydropyridazin-4-yl)pyrrolidin-3-yl ((1r,3R)-3-aminocyclobutyl)carbamate], the IC50 (in assay [1]; at human CD73) was 0.001 to 10 µM throughout.
Take `O=C(Nc1ccc(F)cc1)N[C@H]1C[C@H](NC(=O)O[C@@H]2CCN(c3cn[nH]c(=O)c3Cl)C2)C1` [P-0168, (R)-1-(5-chloro-6-oxo-1,6-dihydropyridazin-4-yl)pyrrolidin-3-yl ((1r,3R)-3-(3-(4-fluorophenyl)ureido)cyclobutyl) carbamate]: the IC50 (in assay [1]; at human CD73) was 0.001 to 10 µM throughout.
On to `CCOC(=O)N[C@H]1C[C@H](NC(=O)O[C@@H]2CCN(c3cn[nH]c(=O)c3Cl)C2)C1` [P-0169, (R)-1-(5-chloro-6-oxo-1,6-dihydropyridazin-4-yl)pyrrolidin-3-yl ethyl ((1R,3r)-cyclobutane-1,3-diyl)dicarbamate], for which the IC50 (in assay [1]; at human CD73) was 0.001 to 10 µM throughout.
For `CS(=O)(=O)N[C@H]1C[C@H](NC(=O)O[C@@H]2CCN(c3cn[nH]c(=O)c3Cl)C2)C1` [P-0170, (R)-1-(5-chloro-6-oxo-1,6-dihydropyridazin-4-yl)pyrrolidin-3-yl ((1r,3R)-3-(methylsulfonamido)cyclobutyl)carbamate], the IC50 (in assay [1]; on human CD73) was 0.001 to 10 µM each time.
As for `O=C(N[C@H]1C[C@H](NS(=O)(=O)c2ccccc2)C1)O[C@@H]1CCN(c2cn[nH]c(=O)c2Cl)C1` [P-0171, (R)-1-(5-chloro-6-oxo-1,6-dihydropyridazin-4-yl)pyrrolidin-3-yl ((1r,3R)-3-(phenylsulfonamido)cyclobutyl) carbamate], the IC50 (in assay [1]; on human CD73) was 0.001 to 10 µM each time.
Regarding `O=CN[C@H]1C[C@H](NC(=O)O[C@@H]2CCN(c3cn[nH]c(=O)c3Cl)C2)C1` [P-0172, (R)-1-(5-chloro-6-oxo-1,6-dihydropyridazin-4-yl)pyrrolidin-3-yl ((1r,3R)-3-formamidocyclobutyl) carbamate], the IC50 (in assay [1]; at human CD73) was 0.001 to 10 µM in each case.
On to `O=C(NC1CCCC1)N[C@H]1CC[C@H](NC(=O)O[C@@H]2CCN(c3cn[nH]c(=O)c3Cl)C2)CC1` [P-0173, (R)-1-(5-chloro-6-oxo-1,6-dihydropyridazin-4-yl)pyrrolidin-3-yl ((1r,4R)-4-(3-cyclopentylureido)cyclohexyl) carbamate], for which the IC50 (in assay [1]; at human CD73) was 0.001 to 10 µM in each case.
`O=C(NC1CCCCC1)N[C@H]1CC[C@H](NC(=O)O[C@@H]2CCN(c3cn[nH]c(=O)c3Cl)C2)CC1` [P-0174, (R)-1-(5-chloro-6-oxo-1,6-dihydropyridazin-4-yl)pyrrolidin-3-yl ((1r,4R)-4-(3-cyclohexylureido)cyclohexyl) carbamate]: the IC50 (in assay [1]; on human CD73) was 0.001 to 10 µM each time.
In the case of `O=C(N[C@H]1CC[C@H](NS(=O)(=O)c2ccc(F)cc2)CC1)O[C@@H]1CCN(c2cn[nH]c(=O)c2Cl)C1` [P-0175, (R)-1-(5-chloro-6-oxo-1,6-dihydropyridazin-4-yl)pyrrolidin-3-yl ((1r,4R)-4-((4-fluorophenyl)sulfonamido)cyclohexyl)carbamate], the IC50 (in assay [1]; on human CD73) was 0.001 to 10 µM in each case.
On to `O=C(N[C@H]1CC[C@H](NS(=O)(=O)c2ccccc2F)CC1)O[C@@H]1CCN(c2cn[nH]c(=O)c2Cl)C1` [P-0176, (R)-1-(5-chloro-6-oxo-1,6-dihydropyridazin-4-yl)pyrrolidin-3-yl ((1r,4R)-4-((2-fluorophenyl)sulfonamido)cyclohexyl)carbamate], for which the IC50 (in assay [1]; on human CD73) was 0.001 to 10 µM in each case.
As to `O=C(NCC1(CCl)CC(NC(=O)O[C@@H]2CCN(c3cn[nH]c(=O)c3Cl)C2)C1)Nc1ccc(F)cc1` (stereo partly drawn) [P-0177, (R)-1-(5-chloro-6-oxo-1,6-dihydropyridazin-4-yl)pyrrolidin-3-yl (3-(chloromethyl)-3-((3-(4-fluorophenyl)ureido)methyl)cyclobutyl)carbamate], the IC50 (in assay [1]; on human CD73) was 0.001 to 10 µM in each case.
Regarding `O=C(Nc1ccc(F)cc1)N[C@H]1CC[C@H](NC(=O)O[C@@H]2CCN(c3cn[nH]c(=O)c3Cl)C2)CC1` [P-0178, (R)-1-(5-chloro-6-oxo-1,6-dihydropyridazin-4-yl)pyrrolidin-3-yl ((1r,4R)-4-(3-(4-fluorophenyl)ureido)cyclohexyl)carbamate], the IC50 (in assay [1]; at human CD73) was 0.001 to 10 µM throughout.
Consider `COC(=O)[C@H]1CC[C@@H](NC(=O)O[C@@H]2CCN(c3cn[nH]c(=O)c3Cl)C2)CC1` [P-0179, methyl (1S,4s)-4-(((((R)-1-(5-chloro-6-oxo-1,6-dihydropyridazin-4-yl)pyrrolidin-3-yl)oxy)carbonyl)amino) cyclohexane-1-carboxylate], for which the IC50 (in assay [1]; at human CD73) was 0.001 to 10 µM in each case.
Turning to `O=C(N[C@H]1CC[C@@H](C(=O)O)CC1)O[C@@H]1CCN(c2cn[nH]c(=O)c2Cl)C1` [P-0180, (1S,4s)-4-(((((R)-1-(5-chloro-6-oxo-1,6-dihydropyridazin-4-yl)pyrrolidin-3-yl)oxy)carbonyl)amino) cyclohexane-1-carboxylic acid], the values for the IC50 (in assay [1]; at human CD73) were 0.001 to 10 µM and 10 to 100 µM, respectively.
The corresponding values for `NC(=O)[C@H]1CC[C@@H](NC(=O)O[C@@H]2CCN(c3cn[nH]c(=O)c3Cl)C2)CC1` [P-0181, (R)-1-(5-chloro-6-oxo-1,6-dihydropyridazin-4-yl)pyrrolidin-3-yl ((1s,4S)-4-carbamoylcyclohexyl) carbamate] are 0.001 to 10 µM and 0.001 to 10 µM.
For the molecule `CCCNC(=O)[C@H]1CC[C@@H](NC(=O)O[C@@H]2CCN(c3cn[nH]c(=O)c3Cl)C2)CC1` [P-0182, (R)-1-(5-chloro-6-oxo-1,6-dihydropyridazin-4-yl)pyrrolidin-3-yl ((1s,4S)-4-(propylcarbamoyl)cyclohexyl) carbamate], the IC50 (in assay [1]; on human CD73) was 0.001 to 10 µM each time.
Turning to `O=C(N[C@H]1CC[C@@H](C(=O)Nc2ccccc2)CC1)O[C@@H]1CCN(c2cn[nH]c(=O)c2Cl)C1` [P-0183, (R)-1-(5-chloro-6-oxo-1,6-dihydropyridazin-4-yl)pyrrolidin-3-yl ((1s,4S)-4-(phenylcarbamoyl)cyclohexyl) carbamate], the IC50 (in assay [1]; on human CD73) was 0.001 to 10 µM throughout.
Take `O=C(N[C@H]1CC[C@H](NC(=O)c2ccccc2)CC1)O[C@@H]1CCN(c2cn[nH]c(=O)c2Cl)C1` [P-0184, (R)-1-(5-chloro-6-oxo-1,6-dihydropyridazin-4-yl)pyrrolidin-3-yl ((1r,4R)-4-benzamidocyclohexyl) carbamate]: the IC50 (in assay [1]; at human CD73) was 0.001 to 10 µM each time.
